Reference: PubChem BioAssay (NCI)
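Assay format: 96-well plates, 48-hour exposure. Abbreviation: GI50, concentration required for 50% inhibition of growth. TGI: concentration producing complete growth inhibition.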

What was measured:
Test in all cases: DTP human tumour cell line panel, 48 h
[1] = tested on: 786-0 renal
[2] = tested on: EKVX NSCLC
[3] = tested on: HL-60(TB) leukemia
[4] = tested on: HT29 colon
[5] = tested on: OVCAR-4 ovarian
[6] = tested on: U251 CNS
[7] = tested on: UACC-62 melanoma
[8] = tested on: UO-31 renal

Row | Compound | TGI [1] | TGI [2] | TGI [3] | TGI [4] | TGI [5] | TGI [6] | TGI [7] | TGI [8] | GI50 [1] | GI50 [2] | GI50 [3] | GI50 [4] | GI50 [5] | GI50 [7] | GI50 [8] | GI50 [6]
1 | O=C1CN(c2cccc(Cl)c2)C(=O)CN1CCN1CC(=O)N(c2cccc(Cl)c2)CC1=O | > 100 µM | > 100 µM | > 100 µM | > 100 µM | > 100 µM | > 100 µM | > 100 µM | > 100 µM |  |  |  |  |  |  |  | 
2 | COC[C@H]1Cn2cc(-c3nc(Nc4ccnn4C)ncc3C)nc2C(=O)N1Cc1ccc(F)c(F)c1 | > 100 µM | > 100 µM | 10.6 µM | > 100 µM | > 100 µM | > 100 µM | > 100 µM | > 86.6 µM | 88 µM | 0.255 µM | 0.471 µM | 0.0436 µM | 17.8 µM | 0.0228 µM | 2.66 µM | 
3 | COc1ccc2nc3cc(Cl)ccc3c(NCCNCC(C)O)c2c1 (stereo not given) | 5.83 µM | 10.7 µM | 6.05 µM | 3.03 µM | 4.8 µM | 4.62 µM | 4.31 µM | 4.85 µM | 1.68 µM | 2.6 µM | 1.9 µM | 0.691 µM | 1.57 µM | 2.01 µM | 1.73 µM | 1.99 µM
4 | COc1cc(-c2ccc3cc(OC)c(OC)c(OC)c3c2)cc(OC)c1OC | > 100 µM |  | > 100 µM |  | > 100 µM | > 100 µM | > 100 µM |  | 20.9 µM |  | > 100 µM |  | > 100 µM | 29.6 µM |  | 15.7 µM
5 | Nc1n[nH]c2cc(F)c([C@@H]3Nc4ccc5[nH]ncc5c4[C@H]4C5CCC(C5)[C@@H]34)cc12 (stereo not given in full) | 12 µM | 49.4 µM | 1.67 µM | > 50 µM | > 50 µM | 9.3 µM | 10 µM | 30.8 µM | 0.25 µM | 0.237 µM | 0.149 µM | 0.182 µM | 0.327 µM | 0.218 µM | 0.651 µM | 0.189 µM
6 | N#Cc1c[nH]n2c(N=Nc3ccc(Cl)cc3)c(O)nc12 | > 100 µM | 81.1 µM | > 100 µM | > 100 µM | > 100 µM | > 100 µM | 57 µM | > 100 µM | 51.6 µM | 31.7 µM | > 100 µM | 50.2 µM | 57.3 µM | 17.2 µM | 32.3 µM | 35.6 µM
7 | CC1SC(c2ccc(F)cc2)N(NC(=O)C(O)c2ccccc2)C1=O (stereo not given) | > 100 µM | > 100 µM | > 100 µM | > 100 µM | > 100 µM | > 100 µM | > 100 µM | > 100 µM | > 100 µM | > 100 µM | > 100 µM | > 100 µM | > 100 µM | > 100 µM | > 100 µM | > 100 µM
8 | Cc1nnc(NC(=O)c2nc(S(=O)(=O)Cc3ccc(F)cc3)ncc2Cl)s1 | 15.5 µM | 24.3 µM | 4.73 µM | 5.8 µM | 3.8 µM | 15.5 µM | 3.01 µM | 20.6 µM | 4.32 µM | 6.73 µM | 2.6 µM | 2.34 µM | 1.8 µM | 1.61 µM | 7.15 µM | 4.12 µM
9 | CCOC(=O)C1=C(C)N(c2ccc(F)cc2F)[C@]2(C#N)C(O)=C(Cl)C(Cl)=C(O)[C@]12C#N | > 100 µM | > 100 µM | > 100 µM | > 100 µM | > 100 µM | > 100 µM |  | > 100 µM | > 100 µM | > 100 µM | > 100 µM | > 100 µM | > 100 µM |  | > 100 µM | > 100 µM
10 | CCCCCCCCCCCCC(O)c1ccc(C#CCCCCCCCCCO)o1 (stereo not given) | 34.4 µM | 43.1 µM |  | > 100 µM | > 100 µM | 33.6 µM | 40.3 µM | 38.5 µM | 18.9 µM | 22.2 µM |  | 69.9 µM | 45.1 µM | 19.7 µM | 19.9 µM | 18.5 µM
11 | COc1cccc(C(=O)NC(c2ccc(C)cc2)c2cc(Cl)c3cccnc3c2O)c1 (stereo not given) | 5.5 µM |  | 2.84 µM | 19.8 µM | 10.2 µM | 11.2 µM | 3.13 µM | 10.8 µM | 0.725 µM |  | 0.427 µM | 0.623 µM | 0.298 µM | 0.357 µM | 0.362 µM | 0.333 µM
12 | O=[N+]([O-])c1ccc(Cl)cc1N/N=C/c1ccnc2ccccc12 | > 100 µM | > 100 µM | > 100 µM | > 100 µM | > 100 µM | > 100 µM | > 100 µM | > 100 µM |  |  |  |  |  |  |  | 
13 | CCOC(=S)SCC(=O)O | > 100 µM | > 100 µM | 5.74 µM | > 100 µM | > 100 µM | > 100 µM | > 100 µM | > 100 µM |  |  |  |  |  |  |  | 
14 | CN(C)c1cc(NN=C(c2ccc(O)cc2)c2ccc(O)cc2)c([N+](=O)[O-])cc1[N+](=O)[O-] | 25.1 µM | 18.1 µM | 55.8 µM | 23.7 µM | 28 µM | 18.3 µM | 14.4 µM | 20.5 µM | 10.9 µM | 5.49 µM | 4.98 µM | 10 µM | 5.77 µM | 3.41 µM | 5.32 µM | 5.61 µM
15 | COc1ccc(-c2cn[nH]c2-c2cc(OC)c(OC)c(OC)c2)cc1 | 7.76 µM |  | 0.0671 µM | 0.336 µM | 46.9 µM | 1.7 µM | 19.5 µM | 15.2 µM | 0.0656 µM |  | 0.0249 µM | 0.0258 µM | 0.511 µM | 0.0339 µM | 0.0572 µM | 0.0358 µM
16 | CCN(Cc1ccc(F)cc1)c1cc(Cl)c(CO)c(Cl)c1 | 32.5 µM |  | 32.6 µM | 33.2 µM | 22.5 µM | 22.6 µM | 17.9 µM | 25.4 µM | 16 µM |  | 13 µM | 16.2 µM | 10.7 µM | 4.98 µM | 12.2 µM | 10.5 µM
